How the values were obtained:
[1] = test system: Fmr1 KO and wildtype NPCs; test: Differentiation assay of cultured NPCs (Tuj1 neurons, GFAP astrocytes); type: cell-based, mouse; conditions: 4 days
Experimental: Proliferation and differentiation of aNPCs were analyzed using our published methods (Guo et al., Nature Med. (2011); Guo et al., Neuron 70, 924-938 (2011); Luo et al., PLoS Genet 6 (2010); Liu et al., Cell Stem Cell 6 (2010)). We used only early passage cells (between passage 4 and 10) and only the same passage numbers of wild type (WT) and Fmr1 KO cells. For each experiment, triplicate wells of cells were analyzed, and results were averaged as one data point (n=1). At least 3 independent experiments (n=3) were performed and used for statistical analyses for each analysis. […] For the differentiation assay, at 24 h post-plating, cells were changed into differentiation medium, Neurobasal A, containing 5 μM forskolin (Sigma-Aldrich, F-6886) and 1 μM retinoic acid (Sigma-Aldrich, R-2625) for 4 d, followed by fixation with 4% paraformaldehyde for 30 min, and then washed with Dulbecco's Phosphate Buffered Saline (DPBS), pH 7.4 for 30 min. Immunocytochemistry staining was carried out as described (Guo et al., Nature Med. (2011); Guo et al., Neuron 70, 924-938 (2011); Luo et al., PLoS Genet 6 (2010); Liu et al., Cell Stem Cell 6 (2010)). Briefly, cells were preblocked using DPBS containing 5% normal goat serum (VECTOR, S-1000) and 0.1% Triton X-100 for 30 min, followed by overnight incubation with primary antibodies: mouse anti-Tuj1 (1:1000, Promega, G712A) and rabbit anti-S100β (1:1000, Dako, Z0334).
After washing with Dulbecco s Phosphate Buffered Saline (DPBS), cells were incubated with secondary antibodies that included goat anti-mouse 568 (1:1000, Invitrogen, A11031), goat anti-rabbit 488 (1:1000, Invitrogen, A11008) followed by counterstaining with the fluorescent nuclear dye 4′,6-diamidino-2′-phenylindole dihydrochloride (DAPI, Sigma-Aldrich, B2261). […] (VECTOR, H-1000), the numbers of Tuj1, GFAP-positive cells were quantified using an Olympus BX51 microscope equipped with a MicroFire digital camera (Optronics) and a motorized stage using a 20× objective lens. The quantification was carried out using an unbiased stereology method with assistance from StereoInvestigator software (MBF Biosciences). The percentage of differentiated cells was calculated as the number of Tuj1- or GFAP-labeled cells divided by the total number of cells stained with DAPI.

[2] = test system: NSCs of Fmr1 KO and wildtype mice; test: In vivo NSC activation in the adult dentate gyrus (GFP+GFAP+MCM2+); set-up: species or system mouse; conditions: 10 mg/kg every other day, 5 injections over 9 days
Experimental: (§1) All animal procedures were performed according to protocols approved by the University of Wisconsin-Madison Care and Use Committee. All mice were on C57B/L6 genetic background. The Fmr1 KO/Nestin-GFP mice (Fmr1−/y::Nestin-GFP) were created by crossing female Fmr1 heterozygous KO mice (Fmr1+/−) (59) with homozygous Nestin-GFP transgenic males (60). Generation of FMRP inducible conditional mutant mice (Fmr1loxP/y::Nestin-CreERT2::Rosa26-tdt) and tamoxifen injections to induce recombination were performed as described (12). To induce recombination, mice (6-weeks old) received Tamoxifen (Sigma-Aldrich) daily for 5 d (160 mg/kg) as described (12). Nutlin-3 (10 mg/kg) was given to 7-8 week-old mice or 20-week old mice through IP injections every other day for 5 injections and sacrificed at either 24 hours, 4 weeks, 12, or 20 weeks after the last injection. […]
The total numbers of GFP^+ or tdT^+ cells in the dentate gyms of each animal were counted on a Zeiss Apotome microscope using unbiased stereology (StereoInvestigator software, MBF Biosciences, Inc). […] Dentate gyms volume was measured using StereoInvestigator as described (11, 12). […] Briefly, at least 50 GFP^+ or BrdU^+ cells in the dentate gyms were randomly selected, and their colocalization with cell-lineage markers was determined using a Nikon A1 confocal microscope and quantified using ImageJ software (NIH).

[3] = test system: NSCs of Fmr1 KO and wildtype mice; test: In vivo cell fate analysis of BrdU+ cells (NeuN, S100β); set-up: species or system mouse; conditions: 10 mg/kg, 5 injections, analyzed 4 weeks after last treatment
Experimental: All animal procedures were performed according to protocols approved by the University of Wisconsin-Madison Care and Use Committee. All mice were on C57B/L6 genetic background. The Fmr1 KO/Nestin-GFP mice (Fmr1−/y::Nestin-GFP) were created by crossing female Fmr1 heterozygous KO mice (Fmr1+/−) (59) with homozygous Nestin-GFP transgenic males (60). Generation of FMRP inducible conditional mutant mice (Fmr1loxP/y::Nestin-CreERT2::Rosa26-tdt) and tamoxifen injections to induce recombination were performed as described (12). To induce recombination, mice (6-weeks old) received Tamoxifen (Sigma-Aldrich) daily for 5 d (160 mg/kg) as described (12). Nutlin-3 (10 mg/kg) was given to 7-8 week-old mice or 20-week old mice through IP injections every other day for 5 injections and sacrificed at either 24 hours, 4 weeks, 12, or 20 weeks after the last injection. For NSC differentiation analysis, mice also received four BrdU injections (100 mg/kg) between day 2 and 3 of Nutlin-3 injections. To induce recombination in FMRP inducible conditional mutant mice (Fmr1^loxP/y::Nestin-CreER^T2::Rosa26-tdt) mice, mice 6-weeks old male mice received Tamoxifen (Sigma-Aldrich) daily for 5 days (160 mg kg-1 i.p., 30 mg ml^−1 in 10% ethanol mixed with sunflower oil, SigmaAldrich) based on a published procedure (13). BrdU (Sigma-Aldrich, B5002) was made in a concentration of 20 mg/mL in PBS. Nutlin-3 (Nt3, Cayman Chemical, 10004372) was made in a concentration of 100 mg/mL in dimethyl sulfoxide (DMSO).
Brain tissue processing and histological analysis of mouse brains were performed as described in our publications (11, 12, 61). Briefly mice were euthanized by IP injection of sodium pentobarbital and then transcardially perfused with saline followed by 4% PFA. Brains were dissected out, post-fixed overnight in 4% PFA, and equilibrated in 30% sucrose. 40 μm brain sections were generated using a sliding microtome and stored as floating sections in cryoprotectant solution (glycerol, ethylene glycol, and 0.1M phosphate buffer, pH 7.4, 1:1:2 by volume). We performed immunohistological analysis on 1-in-6 serial floating brain sections (240 μm apart). […]
Phenotypic analysis of tdT+ cells was performed as described 3,4. Briefly, at least 50 tdT+ cells in the DG were randomly selected, and their colocalization with cell-lineage markers (e.g., double labeling with GFAP) was determined using Nikon A1 confocal microscope and quantified using Image J software (NIH). […] Briefly, at least 50 BrdU+ cells in the DG were randomly selected, and the colocalization of BrdU with cell-lineage markers (NeuN or S100β) was determined using Nikon A1 confocal microscope and quantified using Image J software (NIH). […]

[4] = test system: Fmr1 KO and wildtype NPCs; test: Western blot analyses of p-AKT, p-MDM2, MDM2 and P53 in NPCs; type: cell-based, mouse
Experimental: NPCs were isolated from the dentate gyms of 8 to 10-week-old male Fmr1 KO mice and wild-type (wildtype) littermate controls based on our published methods (12, 64). Independently isolated cells serve as biological replicates. Proliferation and differentiation of NPCs was analyzed as described (11, 12, 61). We used only early passage cells (between passage 4 and 10) and only the same passage numbers of wildtype and Fmr1 KO cells. For each experiment, triplicate wells of cells were analyzed, and results were averaged as one data point (n=1). At least 3 independent biological replicates were used (n=3) for statistical analyses.
Protein samples were separated on SDS-PAGE gels (Bio-Rad), transferred to PVDF membranes (Millipore), and incubated with primary antibodies. After incubation with fluorescence-labeled secondary antibodies (Li—CoR), the membranes were imaged using Li—CoR and quantification was performed using ImageJ software. At least n=3 independent blots were used for statistical analysis.
For loading controls, membranes were probed with the mouse antibody against GAPDH.

Open field activity test = type: in vivo, mouse; conditions: wildtype and Fmr1 KO mice; Nutlin-3 10 mg/kg, 5 injections
Experimental: as §1, with “injection. For NSC differentiation analysis, mice also received four BrdU injections (100 mg/kg) between day 2 and 3 of Nutlin-3 injections.” for “injection.”
Mice were subjected to open field testing for evaluation of locomotor activity and general anxiety. Activity was recorded at 10-min intervals for total 30 min by means of a computer-operated tracking system (Omnitech Electronics Inc, USA) Total distance moved, and ratio of entry time into the Centre and periphery of arena were measured.

[5] = Fmr1 KO NPCs, 1 μM MK2206, 2 μM Nutlin-3, 1 μM RG7112
[6] = wildtype NPCs, 1 μM MK2206, 2 μM Nutlin-3

SMILES: COc1ccc(C2=N[C@@H](c3ccc(Cl)cc3)[C@@H](c3ccc(Cl)cc3)N2C(=O)N2CCNC(=O)C2)c(OC(C)C)c1 [Nutlin-3]
- astroglial differentiation (GFAP+) [1, 5]: specifically rescued astroglial differentiation phenotypes
- neuronal differentiation (Tuj1+) [1, 5]: rescued neuronal differentiation phenotypes
- astroglial differentiation (GFAP+) [1, 6]: without a significant effect on wildtype NPCs
- neuronal differentiation (Tuj1+) [1, 6]: without a significant effect on wildtype NPCs
- NSC activation (percentage of activated NSCs among total NSCs) ([2]; Fmr1 KO mice): specifically reduced NSC activation in Fmr1 KO mice to wildtype levels
- NSC activation (percentage of activated NSCs among total NSCs) ([2]; wildtype mice): no significant effect on wildtype mice
- astroglial differentiation (S100β+ among BrdU+ cells) ([3]; Fmr1 KO mice): rescued both neuronal and astroglial differentiation
- neuronal differentiation (NeuN+ among BrdU+ cells) ([3]; Fmr1 KO mice): rescued both neuronal and astroglial differentiation
- astroglial differentiation (S100β+ among BrdU+ cells) ([3]; wildtype mice): without any significant effect on wildtype mice
- neuronal differentiation (NeuN+ among BrdU+ cells) ([3]; wildtype mice): without any significant effect on wildtype mice
- P53 expression ([4]; Fmr1 KO NPCs): increased P53
- p-MDM2 (Ser166) ([4]; Fmr1 KO NPCs): did not affect p-MDM2 levels
- P53 expression ([4]; wildtype NPCs): no significant effect on wildtype cells
- p-MDM2 (Ser166) ([4]; wildtype NPCs): did not affect p-MDM2 levels
- locomotor activity and anxiety (total distance, center/periphery entry ratio) (Open field activity test): no significant effect
